Experimental data as given in patent US20210275646A1, “PHARMACOLOGIC TREATMENT FOR RIGHT VENTRICULAR FAILURE” (The Trustees of Columbia University in the City of New York, priority 2018, published 2021).

Tests used:
Type in all cases: cell-based
[1] = system: neonatal rat ventricular myocytes (NRVMs); test: LC3-II/I ratio (Western) in NRVMs treated with bafilomycin A or chloroquine, canonical versus non-canonical autophagy; details: BafA 100 nM, 1 h; si-Wipi1 and si-scramble transfected NRVMs
[2] = system: neonatal rat ventricular myocytes (NRVMs); test: RT-qPCR of transcript expression in siRNA-transfected NRVMs with or without aldosterone
Procedure: Total RNA were extracted from human and mouse tissues and cultured neonatal rat ventricular myocytes (NRVMs) using the Tissue RNA Purification Kit (Norgen Biotek) and the TRIzol reagent (Invitrogen) respectively, according to the manufacturer's instructions. RNA was quantified with the NanoDrop-2000c instrument (Thermo Scientific), and cDNA synthesis was performed with iScript reverse transcription Supermix (BioRad). Quantitative RT-PCR was performed on a CFX96 thermal cycler using the iTac Universal SYBR green Supermix (Biorad) and specific primers. Gene expression was normalized to Rps13, and relative mRNA expression was quantified using the ΔΔCt method. For data robustness and reproducibility, target genes were also normalized to Rps15.
(§1) Neonatal Sprague-Dawley rats were euthanized by decapitation within the first 24 h after birth and beating hearts heart fragments were rinsed in 1×PBS without pen/strep and digested in 0.1% Trypsin solution in 1×PBS (0.8 ml of 0.1% Trypsin solution per heart) for 15 min at 37° C. The supernatant was collected and the remaining tissue was further digested repeatedly for a total of 10 times, with serial collection of supernatant. Digestion was stopped on ice with 10% FBS, and cells were collected from pooled supernatant by centrifugation at 1500 rpm for 5 min at room temperature. The cell pellet was resuspended in an adequate volume of complete medium. Cells were counted and plated in 10 cm dishes for ˜1 h at 37° C., 5% CO2 at a density of 10×10^6 cells per plate (pre-plating). During this pre-plating step, non-myocytes including fibroblasts adhere to the plate, while NRVMs remain in suspension. The supernatant cells were subsequently seeded on protamine sulfate coated dishes (10^5 cells/cm^2) and were left to attach for 12 h. NRVM primary cultures were maintained in MEM medium supplemented with 10% FBS, penicillin (100 units/ml)/streptomycin (100 μg/ml) (Gibco-Fisher Scientific). 1-β-D-Arabinofuranosyl-cytosine (AraC 20 μM, Calbiochem-Sigma) was also added to the culture medium to inhibit fibroblast proliferation.
At 24 h following isolation, NRVMs were transfected with siRNAs using the Dharmafect #1 transfection reagent according to the manufacturers protocol (Dharmacon). NRVMs were plated at a density of ˜10^5 cells/cm^2 and transfected with 10 nM of a pool of either non-targeting siRNA (siRNA-scramble control) or siRNAs against the rat Wipi1 gene (siRNA-Wipi1). All siRNAs were ON-TARGETplus SMARTpool siRNAs (Dharmacon). Following a 24 h transfection period, the medium was changed to serum-free DMEM:F12 supplemented with penicillin (100 units/ml)/streptomycin (100 μg/ml). […] Serum-free DMEM:F12 culture medium without any aldosterone was used as a comparative control to neurohormone activation.

[3] = system: neonatal rat ventricular myocytes (NRVMs); test: MTT assay of cell viability
Procedure: To assess NRVM viability, the Vybrant MTT cell proliferation assay kit was used (Molecular probes). Initially, NRVM were seeded on 96-well plates at ˜3×10^4 cells/well (˜10^5 cells/cm^2, the same density as in other assays) and were treated identically as in the siRNA transfection assays (including transfection, serum starvation and neurohormonal stimulation). In addition, increasing number of cells ranging from 2×10^4 to 14×10^4 were used to create a standard curve and to calculate the linearity between absorbance at 595 nm and cell number. Prior to labelling with MTT, the medium was removed and 100 μl of fresh medium was added to each well. The same amount of medium (100 μl) without cells was used as negative control (blank). The cells and the negative control were labeled with 10 μl of 12 mM MTT/well and were incubated at 37° C. for 4 h. Subsequently, 100 μl of SDS-HCL solution was added to each well, mixed thoroughly and incubated for 4 h at 37° C. Finally, the absorbance at 595 nm was measured on a plate reader and the % of cell viability was calculated using the formula:
% of viability=(A595sample/A595reference)×100

[4] = system: neonatal rat ventricular myocytes (NRVMs); test: MitoSOX Red analysis of mitochondrial superoxide level; details: Aldo 1 μM 48 h, si-scramble control NRVMs
Procedure: Neonatal rat ventricular myocytes (NRVMs) were transfected with scramble or Wipi1-specific siRNAs and then stimulated with aldosterone (Aldo, 1 μM, 48 h) or hydrogen peroxide (H2O2, 50 μM, 2 h).
(§2) At 24 h following isolation, NRVMs were transfected with siRNAs using the Dharmafect #1 transfection reagent according to the manufacturers protocol (Dharmacon). NRVMs were plated at a density of ˜10^5 cells/cm^2 and transfected with 10 nM of a pool of either non-targeting siRNA (siRNA-scramble control) or siRNAs against the rat Wipi1 gene (siRNA-Wipi1). All siRNAs were ON-TARGETplus SMARTpool siRNAs (Dharmacon). Following a 24 h transfection period, the medium was changed to serum-free DMEM:F12 supplemented with penicillin (100 units/ml)/streptomycin (100 μg/ml). After ˜12 h of serum-starvation, the cells were incubated with aldosterone […] in serum-free DMEM:F12 culture medium for 48 h at 37° C., 5% […]. Serum-free DMEM:F12 culture medium without any aldosterone was used as a comparative control to neurohormone activation.
Mitochondrial superoxide level was monitored with the MitoSOX™ Red mitochondrial superoxide indicator for live-cell imaging (Molecular Probes). […] The red fluorescent signal was measured with ImageJ software and normalized to the brightfield signal.

[5] = system: neonatal rat ventricular myocytes (NRVMs); test: Western blot of protein expression in siRNA-transfected NRVMs with or without aldosterone
Procedure: Total proteins were extracted from tissues and NRVMs with the T-PER lysis buffer (Thermo Scientific) supplemented with the Halt Protease and Phosphatase Inhibitor Cocktail (Thermo Scientific). Protein extraction from mouse tissues was performed using a BeadBug Benchtop Homogenizer and zirconium beads (Sigma). Protein quantification was performed with the BCA reagent (Pierce). Total protein samples were resolved on NuPAGE 4-12% Bis-Tris gradient gels (Invitrogen) and transferred to 0.2 μm Nitrocellulose membranes (Biorad) for immunoblotting. Membranes were stained with the LI-COR Revert Total Protein Stain kit and analyzed as per manufacturer's instructions. Membranes were blocked and then incubated with primary antibodies as detailed in Table 2 at 4° C. overnight. Membranes were then washed and incubated with the appropriate LI-COR secondary antibody. Membranes were imaged using the ODYSSEY-Classic infrared system from LI-COR. Protein expression was normalized to total protein.
as §1, §2

[6] = NRVMs, si-Wipi1 vs si-scramble, with or without aldosterone
[7] = aldosterone 48 h, si-scramble control NRVMs, serum starved

CO/C1=C\C(C)=C\[C@@H](C)[C@@H](O)[C@@H](C)C/C(C)=C/C=C/[C@H](OC)[C@@H]([C@@H](C)[C@@H](O)[C@H](C)[C@@]2(O)C[C@@H](O)[C@H](C)[C@@H](C(C)C)O2)OC1=O [BafA, bafilomycin A]
LC3-II/I ratio [1]: increased

C[C@]12CCC(=O)C=C1CC[C@@H]1[C@@H]2[C@@H](O)C[C@]2(C=O)[C@@H](C(=O)CO)CC[C@@H]12 [aldosterone]
Snap47 or Prdx5 transcript expression [2, 6]: Neither silencing Wipi1 nor stimulation with aldosterone affected
Map4 transcript levels ([2]; aldosterone stimulation, in either si-Wipi1 or si-scramble NRVMs): did not affect
Hspb6 transcript expression ([2]; aldosterone, both si-Wipi1 and si-scramble NRVMs): stimulated
expression of Nppa, Nppb, Acta1, and Myh7 (fetal gene program) ([2]; si-scramble control NRVMs, Aldo 1 μM 48 h): significantly increased
cell viability [3]: Neither aldosterone stimulation nor silencing Wipi1 negatively impacted
mitochondrial superoxide levels [4]: increased
Hspb6 protein expression [5, 6]: consistent with transcript data
Snap47 or Prdx5 protein expression [5, 6]: Neither silencing Wipi1 nor stimulation with aldosterone affected
Ser16-HSPB6 phosphorylation ([5]; aldosterone 48 h, si-scramble NRVMs, serum starved): did decrease
BECN1 expression [5, 7]: did not affect
LC3-lipidation [5, 7]: did not affect
Map4 protein expression ([5]; aldosterone, si-scramble control NRVMs): did induce
